Results published in patent US11208405B2, “Pyrrole derivatives as PLK1 inhibitors” (SENTINEL ONCOLOGY LIMITED, priority 2017, dated 2021).
Structures can show the parent of a compound that is named as a salt.

Tested on: HCT116 cells
Experiment: Effects on HCT116 colorectal cancer cell viability (cell titre blue, 72 hours)
Assay type: cell-based
Settings: Homo sapiens, HCT-116, HCT116 cell line
Procedure: Assay to Measure the Effects of Compounds of the Invention on HCT116 Colorectal Cancer Cell Viability
The following protocol was used to measure the effects of compounds of the invention on HCT116 cell viability.
1. HCT116 cells were grown in RPM11640 media supplemented with Glutamax and 10% FBS in a 37° C./5% CO2 incubator.
2. Growing culture of HCT116 cells were trypsinised, counted and diluted to give 10,000 cells/mL in an appropriate volume, allowing at least 6 mL of cells per plate.
3. 200 μL of PBS were added to all the outer wells of a flat-bottomed (8×12) 96-well TC plate. 100 μL of media were added only to wells in column 11 of the plates (these wells provided a blank for the cell titre blue assay). Two compounds were assayed on each plate.
4. 100 ul of 10,000 cells/mL HCT116s were plated in rows B-G of each plate.
5. The cells were incubated (37° C. 5% CO2) for 24 hours before treating with compounds.
6. An 8 mM compound stock in DMSO was prepared for all compounds to be tested. 2.5 μL of the compound stock was added to 1000 μL growth medium in a 96-well deep well block and serial dilutions were prepared across the plate by transferring 500 μL into wells containing 500 μL growth medium+0.25% DMSO to give eight concentrations of compound (this ensured a constant amount of DMSO at all concentrations of compound). When making up growth medium+DMSO, an amount of 5 ml was allowed per compound to be diluted.
7. 3 rows of cells were treated with 100 μL/well from each row on the dilution plate so that each cell plate is treated with a single compound. This gave a final volume in all wells of 200 μL and a titration of compound from a final concentration of 10 uM down to 78 nM.
8. The cells were incubated (37° C. 5% CO2) for 72 hours.
9. 5 ul cell titre blue reagent (Promega) were added to all wells except the edge wells (which contain PBS only) and incubated (37° C. 5% CO2) for 2.5-3 hours.
10. Fluorescence was measured on a suitable plate reader using a 530-570 nm filter set for excitation and a 580-620 nm filter set for fluorescence emission.
11. Data were analysed using an appropriate graphing package (such as GraphPad Prism). Data were expressed as the concentration of compound causing a 50% inhibition of cell viability or GI50.

Structure (SMILES)	GI50
CN(C)CCOCc1ccc(-c2ccc(-c3ccc(Br)cc3)n2-c2ccccc2C(F)(F)F)cc1 [Example 45, 2-[[4-[5-(4-Bromophenyl)-1-[2-(trifluoromethyl)phenyl]pyrrol-2-yl]phenyl]methoxy]-N,N-dimethyl-ethanamine Hydrochloride]	350 nM
COc1cc(C(=O)NCCN(C)C)ccc1-c1ccc(-c2ccc(Br)cc2)n1-c1ccccc1C(F)(F)F [Example 32, hydrochloride]	60 nM
CN(C)CCNC(=O)c1ccc(-c2ccc(-c3ccccc3)n2-c2ccccc2C(F)(F)F)cc1Cl [Example 39, hydrochloride]	350 nM
CN(C)CCNC(=O)c1ccc(-c2ccc(-c3ccc(Br)cc3)n2-c2ccccc2C(F)(F)F)nc1 [Example 29, 6-[5-(4-Bromophenyl)-1-[2-(trifluoromethyl)phenyl]pyrrol-2-yl]-N-[2-(dimethylamino)ethyl]pyridine-3-carboxamide Hydrochloride]	60 nM
O=C(NCCN1CCOCC1)c1ccc(-n2ncc(-c3ccc(Cl)cc3)c2-c2ccccc2C(F)(F)F)cc1 [Example 104, hydrochloride]	150 nM
CN(C)CCNC(=O)c1ccc(-c2ccc(-c3ccc(Br)cc3)n2-c2ccccc2CN(C)C)cc1 [Example 40, hydrochloride]	1030 nM
CN(C)CCNC(=O)c1ccc(-c2ccc(-c3ccc(F)cc3F)n2-c2ccccc2C(F)(F)F)cc1 [Example 43]	200 nM
CN(C)CCNC(=O)c1ccc(-c2ccc(-c3ccc(Br)cc3)n2-c2ccccc2C(F)(F)F)cc1Cl [Example 38]	190 nM
CC(C)Cc1ccc(C(F)(F)F)c(-n2c(-c3ccc(Cl)cc3)ccc2-c2ccc(C(=O)NCCN(C)C)cc2)c1 [Example 63, hydrochloride]	1640 nM
COc1cc(C(=O)NCCN(C)C)ccc1-c1ccc(-c2ccc(Cl)cc2)n1-c1cnccc1C(F)(F)F [Example 73, hydrochloride]	90 nM
CN(C)CCNC(=O)c1ccc(-c2ccc(-c3ccc(Cl)cc3)n2-c2cccc(C(F)(F)F)c2)cc1 [Example 77, hydrochloride]	3630 nM
CN(C)CCNC(=O)c1ccc(-c2onc(-c3ccc(Cl)cc3)c2-c2ccccc2C(F)(F)F)cc1 [Example 92, Hydrochloride]	30 nM
CN(C)CCNS(=O)(=O)c1ccc(-c2ccc(-c3ccc(Br)cc3)n2-c2ccccc2C(F)(F)F)cc1 [Example 44, 4-[5-(4-Bromophenyl)-1-[2-(trifluoromethyl)phenyl]pyrrol-2-yl]-N-[2-(dimethylamino)ethyl]benzenesulfonamide Hydrochloride]	510 nM
CN(C)CC(=O)NCc1cccc(-c2ccc(-c3ccc(Br)cc3)n2-c2ccccc2C(F)(F)F)c1 [Example 21, N-[[3-[5-(4-Bromophenyl)-1-[2-(trifluoromethyl)phenyl]pyrrol-2-yl]phenyl]methyl]-2-(dimethylamino)acetamide Hydrochloride]	1060 nM
CN(C)CCCNc1cccc(-c2ccc(-c3ccc(Br)cc3)n2-c2ccccc2C(F)(F)F)c1 [Example 16, N-[3-[5-(4-Bromophenyl)-1-[2-(trifluoromethyl)phenyl]pyrrol-2-yl]phenyl]-N′,N′-dimethyl-propane-1,3-diamine Hydrochloride]	2720 nM
CN(C)CCNC(=O)c1cccc(-c2ccc(-c3ccc(Oc4ccccc4)cc3)n2-c2ccc(F)cc2)c1 [Example 8, hydrochloride]	1850 nM
CN(C)CCNC(=O)c1ccc(-c2ccc(-c3ccc(C#N)nc3)n2-c2ccccc2C(F)(F)F)cc1 [Example 66, hydrochloride]	890 nM
CN(C)CCNC(=O)c1ccc(Cl)c(-c2ccc(-c3ccc(Br)cc3)n2-c2ccccc2)c1 [Example 19, hydrochloride]	4210 nM
CN(C)CCNC(=O)c1ccc(-c2ccc(-c3ccc(Cl)cc3)n2-c2cnccc2C(F)(F)F)c(F)c1 [Example 89, hydrochloride]	1360 nM
COc1cc(C(=O)NCCCN(C)C)ccc1-c1ccc(-c2ccc(Cl)cc2)n1-c1cnccc1C(F)(F)F [Example 74, hydrochloride]	130 nM
COCc1ccccc1-n1c(-c2ccc(Br)cc2)ccc1-c1ccc(C(=O)NCCN(C)C)cc1 [Example 50]	2180 nM
CN(C)CCCNC(=O)c1ccc(-c2ccc(-c3ccc(Cl)cc3)n2-c2cnccc2C(F)(F)F)cc1 [Example 51, hydrochloride]	100 nM
COc1ccc(C(=O)NCCN(C)C)cc1-c1ccc(-c2ccc(Br)cc2)n1-c1ccccc1C(F)(F)F [Example 52, hydrochloride]	350 nM
CN(C)CCCNC(=O)c1ccc(-c2ccc(-c3ccc(Cl)cc3)n2-c2ncccc2C(F)(F)F)cc1 [Example 80, hydrochloride]	3920 nM
CN(C)CCNC(=O)c1cccc(-c2ccc(-c3ccc(F)cc3)n2-c2ccccc2C(F)(F)F)c1 [Example 5, hydrochloride]	560 nM

Now from value to compound:

GI50	Structure (SMILES)
500 nM	CN(C)CCNC(=O)Nc1ccc(-c2ccc(-c3ccc(Cl)cc3)n2-c2ccccc2C(F)(F)F)cc1 [Example 90, 1-[4-[5-(4-Chlorophenyl)-1-[2-(trifluoromethyl)phenyl]pyrrol-2-yl]phenyl]-3-[2-(dimethylamino)-ethyl]urea Hydrochloride]
1380 nM	O=C(O)Cc1ccc(-c2ccc(-c3ccc(Br)cc3)n2-c2ccccc2C(F)(F)F)cc1 [Example 47, 2-[4-[5-(4-Bromophenyl)-1-[2-(trifluoromethyl)phenyl]pyrrol-2-yl]phenyl]acetic Acid]
490 nM	CN1CCN(C(=O)c2ccc(-c3ccc(-c4ccc(Cl)cc4)n3-c3ccccc3C(F)(F)F)cc2)CC1 [Example 85, hydrochloride]
20 nM	CN(C)CCNC(=O)c1ccc(-c2ccc(-c3ccc(Cl)cc3)n2-c2ccc(F)cc2C(F)(F)F)cc1 [Example 97, hydrochloride]
20 nM	CN(C)CCNC(=O)c1ccc(-c2ccc(-c3ccc(Cl)cc3)n2-c2ccc(Cl)cc2C(F)(F)F)cc1 [Example 98, hydrochloride]
2250 nM	CN(C)[C@H]1CCN(C(=O)c2cccc(-c3ccc(-c4ccc(Br)cc4)n3-c3ccccc3C(F)(F)F)c2)C1 [Example 55, hydrochloride]
1730 nM	CN(C)CCNC(=O)c1ccc(-c2ccc(-c3cccc(Cl)c3)n2-c2ccccc2C(F)(F)F)cc1 [Example 72, hydrochloride]
190 nM	O=C(c1ccc(-c2ccc(-c3ccc(Cl)cc3)n2-c2ccccc2C(F)(F)F)cc1)N1CCNCC1 [Example 84, hydrochloride]
8440 nM	O=C(O)c1ccc(-c2ccc(-c3ccc(Br)cc3)n2-c2ccccc2C(F)(F)F)nc1 [Example 30, 6-[5-(4-bromophenyl)-1-[2-(trifluoromethyl)phenyl]pyrrol-2-yl]pyridine-3-carboxylic acid]
340 nM	COCCNC(=O)c1ccc(-c2ccc(-c3ccc(Cl)cc3)n2-c2ccccc2C(F)(F)F)cc1 [Example 86, 4-[5-(4-chlorophenyl)-1-[2-(trifluoromethyl)phenyl]pyrrol-2-yl]-N-(2-methoxyethyl)benzamide]
40 nM	C[C@@H](CNC(=O)c1ccc(-c2ccc(-c3ccc(Cl)cc3)n2-c2ccccc2C(F)(F)F)cc1)N(C)C [Example 103]
250 nM	CN1CCN(CCNC(=O)c2ccc(-c3ccc(-c4ccc(Cl)cc4)n3-c3ccccc3C(F)(F)F)cc2)CC1 [Example 88, hydrochloride]
160 nM	CN(C)CCC(=O)Nc1ccc(-c2ccc(-c3ccc(Br)cc3)n2-c2ccccc2C(F)(F)F)cc1 [Example 46, N-[4-[5-(4-Bromophenyl)-1-[2-(trifluoromethyl)phenyl]pyrrol-2-yl]phenyl]-3-(dimethylamino) propanamide Hydrochloride]
1960 nM	NS(=O)(=O)c1ccc(-c2ccc(-c3ccc(Br)cc3)n2-c2ccccc2C(F)(F)F)cc1 [Example 65, 4-[5-(4-bromophenyl)-1-[2-(trifluoromethyl)phenyl]pyrrol-2-yl]benzenesulfonamide]
80 nM	O=C(NCCN1CCOCC1)c1ccc(-c2ccc(-c3ccc(Cl)cc3)n2-c2ccccc2C(F)(F)F)cc1 [Example 95, hydrochloride]
30 nM	O=C(NCCN[C@H]1CCOC1)c1ccc(-c2ccc(-c3ccc(Cl)cc3)n2-c2cnccc2C(F)(F)F)cc1 [Example 96]
4740 nM	O=C(O)c1ccc(-c2ccc(-c3ccc(Br)cc3)n2-c2ccccc2C(F)(F)F)cc1 [Example 27, 4-[5-(4-bromophenyl)-1-[2-(trifluoromethyl)phenyl]pyrrol-2-yl]benzoic acid]
60 nM	CN(C)CCN(C)C(=O)c1ccc(-c2ccc(-c3ccc(Cl)cc3)n2-c2ccccc2C(F)(F)F)cc1 [Example 83, hydrochloride]
3830 nM	CN(C)CCNC(=O)c1ccc(-c2ccc(-c3ccc(Cl)cc3)n2-c2ncccc2C(F)(F)F)cc1 [Example 79, hydrochloride]
